Columns and labels:
[1] = stated in discussion, no reference given; cited from earlier work
Method: Ghrelin levels were normal before infusion at 1030 hours. Renal function was not impaired. These unexpected findings of total, but not active, ghrelin remain unexplained at present but may indeed be without any physiological significance.

[2] = test system: patients with advanced incurable cancer and anorexia/cachexia; conditions: in vivo
Method: In a randomised, double-blind, placebo-controlled, double-crossover trial, 4–5 days after baseline, patients received ghrelin on days 1 and 8 and placebo on days 4 and 11 or vice versa; end of study was day 17/18 (Figure 1).
On treatment days, patients ingested only water from midnight to breakfast. In the outpatient clinic, safety laboratory values and fasting hormone blood samples (including testosterone in male patients) were drawn at 0800 hours; venous access was maintained for pharmacokinetics. Patients received a standardised breakfast (120 g bread, 20 g butter, 60 g jam, 200 ml coffee with milk). At 1000 hours, a second i.v. line was inserted in the other arm for treatment given from 1030 to 1130 hours. Immediately after the end of the infusion, patients walked for approximately 5 min the 90 m to the restaurant where they received priority serving, starting the meal within 5 min.
Ghrelin of Good Manufacturing Practice quality was purchased from Clinalfa (Merck Biosciences, Switzerland) as vials of 88 μg, stored at −20°C, and dissolved in 250 ml normal saline by the hospital pharmacy immediately before application. The treatment was titrated up within the first 10 min (20% increase each 2 min) and maintained for the next 50 min. The lower-dose group (LD) received 10 pmol kg^−1 min^−1 (equals 0.0336 μg kg^−1 min^−1, approximately 2 μg kg^−1). […] After observing treatment tolerance in the LD patients, we administered the upper-dose group (UD) 40 pmol kg^−1 min^−1 (approximately 8 μg kg^−1). Normal saline was used as placebo.
Patients were assessed at each visit by using the NCI-CTC toxicity criteria Version 3.0, including standard blood examinations (hematology, chemistry panels), and cardiology evaluations, including echocardiography at baseline and at end of study. During the treatment phase, research personnel regularly contacted patients at home during the daytime to check for their safety. […] On study day 7 and at end of study, patients were asked about their perception of their tolerance and preference of day 1 (and 7) vs day 4 (and 11) treatments.

[3] = design: species or system human; conditions: in vivo
Method: (§1) Normal saline was used as placebo.
(§2) For ghrelin assays, 5 ml blood was collected in a precooled EDTA vacutainer tube containing aprotinin (33 kIU), placed immediately on ice, and centrifuged (4°C, 3000 G, 5 min). For each millilitre of plasma, 10 μl PMSF-Isopropanol, 50 μl 1N-HCL, and 50 μl aprotinin were added, and aliquots were stored at −80°C until batch analysis. Serum was collected and cooled for GH, insulin-like growth factor 1 (IGF-1), interleukin-6 (IL-6), and leptin analysis. Testosterone radioimmunoassays (Diagnostic Products Corporation; Bühlmann, Salzburg, Austria) were performed from serum sent to routine safety labs. The radioimmunoassay kits used for total and active ghrelin were from Linco Research (St Charles, MO, USA); for GH (active GH IRMA immunoradiometric assay) from Diagnostic Systems Laboratory (Webster, TX, USA); for IGF-1 (human, bovine) from Peninsula Laboratories (San Carlos, CA, USA); for IL-6 (Quantikine human ELISA) from R&D Systems (Minneapolis, MN, USA); and for leptin (human RIA) from Millipore (Billerica, MA, USA).
(§3) All analyses were performed with SPSS (Version 11.5).

interleukin-6 = assay: Plasma IL-6 levels (ELISA); format: in vivo, human; conditions: throughout the treatment period; results not shown
Method: as §2

[4] = test system: patients with advanced incurable cancer and anorexia/cachexia; conditions: human, in vivo
Source text: On study day 7 and at end of study, patients were asked about their perception of their tolerance and preference of day 1 (and 7) vs day 4 (and 11) treatments.
For exploratory analyses of patients' preference of treatment, we used the exact binominal test.

[5] = test system: insulin-like growth factor 1; assay: Serum insulin-like growth factor 1 (IGF-1) levels; format: in vivo, human
Method: as §2, §3

cancer patients = conditions: seven cancer patients; 5 pmol kg^−1 min^−1 for 180 min equals 3 μg kg^−1; no adverse effects; ref Neary et al, 2004; cited from earlier work
Source text: In melanoma-bearing nude mice, ghrelin plasma concentration increased with cachexia progression ([Hanada et al, 2004]). In cancer patients with cachexia (various cancers, n=21 ([Garcia et al, 2005]); breast and colorectal cancer, n=18 ([Wolf et al, 2006]); lung cancer, n=21 ([Shimizu et al, 2003])), ghrelin morning fasting levels were 1.3- to 1.5-fold higher than in those without cachexia and healthy controls. In contrast, ghrelin levels were normal in subgroups of patients in one study (39%) ([Wolf et al, 2006]) and all patients in another study (gastric and colorectal cancer, n=58) ([Huang e ...

[6] = test system: patients with advanced incurable cancer and anorexia/cachexia; assay: Autonomic function: standard deviation of beat-to-beat intervals (SDNN); format: in vivo, human; conditions: UD (n=9), ghrelin, P=NS
Method: Autonomic dysfunction was assessed as described previously ([Strasser et al, 2006]). Standard deviation of beat-to-beat intervals (SDNN) was analysed at baseline and at end of study for 20 min in both the LD and UD; and in the UD, in addition, 30 min before infusion until after lunch on treatment days.
as §3

growth hormone (GH) = assay: Serum growth hormone (GH) response to i.v. ghrelin (IRMA); format: in vivo, human
Method: as §1, §2, §3

[7] = test system: patients with advanced incurable cancer and anorexia/cachexia; assay: Radiological tumour measurements; format: in vivo, human
Method: Patients were assessed at each visit by using the NCI-CTC toxicity criteria Version 3.0, including standard blood examinations (hematology, chemistry panels), and cardiology evaluations, including echocardiography at baseline and at end of study. […] On study day 7 and at end of study, patients were asked about their perception of their tolerance and preference of day 1 (and 7) vs day 4 (and 11) treatments. […] An independent radiologist reviewed all films made before baseline, at baseline, and at end of study to judge tumour size and dynamics.

CCCCCCCC(=O)OC[C@H](NC(=O)[C@H](CO)NC(=O)CN)C(=O)N[C@@H](Cc1ccccc1)C(=O)N[C@@H](CC(C)C)C(=O)N[C@@H](CO)C(=O)N1CCC[C@H]1C(=O)N[C@@H](CCC(=O)O)C(=O)N[C@@H](Cc1cnc[nH]1)C(=O)N[C@@H](CCC(N)=O)C(=O)N[C@@H](CCCNC(=N)N)C(=O)N[C@H](C(=O)N[C@@H](CCC(N)=O)C(=O)N[C@@H](CCC(N)=O)C(=O)N[C@@H](CCCNC(=N)N)C(=O)N[C@@H](CCCCN)C(=O)N[C@@H](CCC(=O)O)C(=O)N[C@@H](CO)C(=O)N[C@@H](CCCCN)C(=O)N[C@@H](CCCCN)C(=O)N1CCC[C@H]1C(=O)N1CCC[C@H]1C(=O)N[C@@H](C)C(=O)N[C@@H](CCCCN)C(=O)N[C@@H](CC(C)C)C(=O)N[C@@H](CCC(N)=O)C(=O)N1CCC[C@H]1C(=O)N[C@@H](CCCNC(=N)N)C(=O)O)C(C)C [ghrelin]
half-life [1]: approximately 15 min | abdominal pain, between infusion days (drug-related adverse events, grade 1 or 2) [2]: 2 | abdominal pain, during infusion on treatment days (drug-related adverse events, grade 1 or 2) [2]: 3 | abnormal liver tests or low potassium, possibly or probably related adverse events [2]: three | asthenia, during infusion on treatment days (drug-related adverse events, grade 1 or 2) [2]: 1 | body temperature and oxygen saturation during and after the infusion [2]: remained unchanged | diarrhea, between infusion days (drug-related adverse events, grade 1 or 2) [2]: 1 | dry mouth, during infusion on treatment days (drug-related adverse events, grade 1 or 2) [2]: 3 | increased CRP, possibly or probably related adverse events [2]: two | nausea, between infusion days (drug-related adverse events, grade 1 or 2) [2]: 1 | shortness of breath (overeaten, aspiration), during infusion on treatment days (drug-related adverse events, grade 1 or 2) [2]: 1 | sweating, during infusion on treatment days (drug-related adverse events, grade 1 or 2) [2]: 2 | vomiting, between infusion days (drug-related adverse events, grade 1 or 2) [2]: 1 | worsening of pre-existing neuropathy, during infusion on treatment days (drug-related adverse events, grade 1 or 2) [2]: 1 | morning fasting total ghrelin levels 3 days after the prior ghrelin infusion compared to after placebo [3]: elevated | plasma levels of IL-6 (interleukin-6): did not change | mean scores for tolerability of the study medication immediately after infusion and after lunch [4]: did not differ between ghrelin and placebo | mean IGF-1 at day 17/18 ([5]; LD (n=7), ±994): 1359 pg per 100 μl | mean IGF-1 at day 17/18 ([5]; UD (n=9), ±495): 1096 pg per 100 μl | insulin-like growth factor 1 levels ([5]; both dose groups, over the study): did not change | energy intake with i.v. ghrelin, higher than with placebo (cancer patients): 31% | mean SDNN ([6]; week 1, placebo 78±35): 84 ± 40 ms | mean SDNN ([6]; week 2, placebo 80±27): 75 ± 35 ms | mean difference of the peak GH levels (of week 1 and week 2) compared to baseline (growth hormone (GH); LD, 10 pmol kg^−1 min^−1 (about 2 μg kg^−1) i.v., SD 6, P=0.004 vs UD): 28 ng/mL | mean difference of the peak GH levels (of week 1 and week 2) compared to baseline (growth hormone (GH); UD, 40 pmol kg^−1 min^−1 (about 8 μg kg^−1) i.v., SD 20, P=0.004 vs LD): 50 ng/mL | peak increase of GH (growth hormone (GH); upper-dose ghrelin 8 μg kg^−1 i.v. over 60 min, cancer patients): 42 ng/mL | patients with progressive disease (PD) during the study period ([7]; both dose groups, crossover ghrelin/placebo): two | tumour-growth dynamics ([7]; short intervals of tumour measurements): no major unexpected tumour-growth dynamics
